Like-named read-outs stand apart in the source and are kept apart here.
How the values were obtained:
Type in all cases: biochemical
DYRK1A = molecular target: T1, DYRK1A (Homo sapiens, UniProt Q13627); test: Inhibition test on activity of DYRK family, mobility shift assay (MSA): DYRK1A
T1 construct: purchased Carna Biosciences, Inc. 04-130
Protocol: (§1) [Inhibition Test on Activity of DYRK Family (DYRK1A, DYRK1B, DYRK2, and DYRK3)]
(§2) The kinase activity was measured by mobility shift assay (MSA) method using QuickScout Screening Assist™ MSA (commercially available kit manufactured by Carna Biosciences, Inc.). The substrate of the kinase reaction used was an FITC-labeled DYRKtide peptide included in the kit. An assay buffer [20 mM HEPES, 0.01% Triton X-100™, 2 mM dithiothreitol, pH 7.5]was used to create a substrate mixture solution with a substrate (4 μM), MgCl2(20 mM), and ATP (DYRK1A: 100 μM; DYRK1B: 200 μM; DYRK2: 40 μM; and DYRK3: 20 μM). In addition, kinases (DYRK1A: manufactured by Carna Biosciences, Inc., Cat. No. 04-130; DYRK1B: manufactured by Carna Biosciences, Inc., Cat. No. 04-131; DYRK2; manufactured by Carna Biosciences, Inc., Cat. No. 04-132; and DYRK3; manufactured by Carna Biosciences, Inc., Cat. No. 04-133) were diluted with the assay buffer to prepare enzyme solutions (DYRK1A: 0.2 ng/μL; DYRK1B: 0.08 ng/μL; DYRK2: 0.04 ng/μL; and DYRK3: 0.25 ng/μL). The 10 mM solution of the test compound in DMSO was further diluted with DMSO to 10 levels of the concentration (0.00003 mM, 0.0001 mM, 0.0003 mM, 0.001 mM, 0.003 mM, 0.01 mM, 0.03 mM, 0.1 mM, 0.3 mM, and 1 mM), each of which was subjected to 25-fold dilution with the assay buffer to obtain a drug solution (4% DMSO solution). 5 μL of the drug solution or a control solution (4% DMSO-assay buffer), 5 μL of the substrate mixture solution, and 10 μL of the enzyme solution were mixed in the wells of a polypropylene 384-well plate and allowed to react at room temperature for 1 hour, and then the reaction was quenched by adding 60 μL of the termination buffer included in the kit. Subsequently, the quantities of the substrates (S) and the phosphorylated substrate (P) in the reaction solution were measured using LabChip EZ Reader II system (manufactured by Caliper Life Sciences) according to the protocol of the assay kit.
(§3) The heights of the peaks of the “substrate” and the “phosphorylated substrate” were expressed as S and P, respectively, and a blank containing the assay buffer instead of the enzyme solution was also measured.
(§4) The inhibition rate (%) of the test compound was calculated according to the following equation:
(§5) Inhibition rate (%)=(1−(C−A)/(B−A))×100 • wherein, A, B, and C represent P/(P+S) of the blank well, P/(P+S) of the control solution well, and P/(P+S) of the compound-containing well, respectively.
(§6) The IC50 value was calculated via a regression analysis of the inhibition rate and the test compound concentration (logarithmic value).

DYRK3 = molecular target: T2, DYRK3 (Homo sapiens, UniProt O43781); test: Inhibition test on activity of DYRK family, mobility shift assay (MSA): DYRK3
T2 construct: purchased Carna Biosciences, Inc. 04-133
T2 sequence (O43781 1-568 isoform O43781-2): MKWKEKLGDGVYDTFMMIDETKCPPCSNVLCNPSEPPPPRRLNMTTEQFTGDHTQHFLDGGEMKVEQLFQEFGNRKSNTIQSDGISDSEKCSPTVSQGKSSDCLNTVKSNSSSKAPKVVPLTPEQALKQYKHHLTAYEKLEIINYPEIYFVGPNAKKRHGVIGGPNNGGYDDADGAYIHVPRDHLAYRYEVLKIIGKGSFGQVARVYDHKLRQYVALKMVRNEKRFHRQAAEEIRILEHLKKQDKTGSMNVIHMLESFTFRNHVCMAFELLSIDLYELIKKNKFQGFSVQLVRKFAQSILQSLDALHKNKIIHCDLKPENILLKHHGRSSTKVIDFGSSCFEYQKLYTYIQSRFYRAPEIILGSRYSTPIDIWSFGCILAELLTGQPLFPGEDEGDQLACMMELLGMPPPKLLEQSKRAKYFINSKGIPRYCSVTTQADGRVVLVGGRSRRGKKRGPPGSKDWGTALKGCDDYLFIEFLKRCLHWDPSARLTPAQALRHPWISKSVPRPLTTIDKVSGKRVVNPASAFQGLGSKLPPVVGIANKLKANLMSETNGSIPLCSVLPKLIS
Protocol: as §1, §2, §3, §4, §5, §6
(§7) The inhibiting activities of representative compounds of the present invention are shown against DYRK1A, DYRK1B, DYRK2, and DYRK3 in Tables.

DYRK2 = molecular target: T3, DYRK2 (Homo sapiens, UniProt Q92630); test: Inhibition test on activity of DYRK family, mobility shift assay (MSA): DYRK2
T3 construct: purchased Carna Biosciences, Inc. 04-132
T3 sequence (Q92630 74-601 limits assumed): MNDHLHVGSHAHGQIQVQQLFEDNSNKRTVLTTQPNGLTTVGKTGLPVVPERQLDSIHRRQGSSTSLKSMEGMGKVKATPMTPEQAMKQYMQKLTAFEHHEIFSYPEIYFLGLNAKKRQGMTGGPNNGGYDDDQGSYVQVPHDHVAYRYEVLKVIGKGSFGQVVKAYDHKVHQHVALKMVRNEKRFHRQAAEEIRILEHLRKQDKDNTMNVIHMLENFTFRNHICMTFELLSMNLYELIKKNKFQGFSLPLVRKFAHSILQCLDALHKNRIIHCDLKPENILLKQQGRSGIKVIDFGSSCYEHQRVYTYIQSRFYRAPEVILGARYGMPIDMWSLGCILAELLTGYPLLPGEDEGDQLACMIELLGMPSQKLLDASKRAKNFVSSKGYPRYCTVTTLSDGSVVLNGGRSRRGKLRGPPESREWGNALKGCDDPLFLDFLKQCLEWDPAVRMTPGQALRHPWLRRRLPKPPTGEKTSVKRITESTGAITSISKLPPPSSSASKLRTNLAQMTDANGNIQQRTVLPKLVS
Protocol: as §1, §2, §3, §4, §5, §6, §7

[1] = MSA, FITC-labeled DYRKtide peptide, ATP 100 μM, read-out: Inhibitory activity DYRK 1A (IC50 class)
[2] = MSA, FITC-labeled DYRKtide peptide, ATP 20 μM, read-out: Inhibitory activity DYRK 3 (IC50 class)
[3] = MSA, FITC-labeled DYRKtide peptide, ATP 40 μM, read-out: Inhibitory activity DYRK 2 (IC50 class)
[4] = read-out: Inhibitory activity DYRK 1A
[5] = read-out: Inhibitory activity DYRK 3
[6] = read-out: Inhibitory activity DYRK 2

Compound	IC50 (DYRK1A; [1])	IC50 (DYRK3; [2])	IC50 (DYRK2; [3])	IC50 (DYRK1A; [4])	IC50 (DYRK3; [5])	IC50 (DYRK2; [6])
O=C1N[C@H]2COCCC[C@H]2N1c1nc2c3c(ccc2s1)OCCO3 [Example 135, (3aR,8aR)-1-(7,8-dihydro[1,4]dioxino[2,3-e][1,3]benzothiazol-2-yl)hexahydro-1H-oxepino[3,4-d]imidazol-2(3H)-one]	10 to 100 nM	100 to 1000 nM	100 to 1000 nM	–	–	–
COCCN1CCC2C(C1)NC(=O)N2c1nc2c3c(ccc2s1)OCC3 (stereo not drawn) [Example 10]	100 to 1000 nM	≥ 1000 nM	≥ 1000 nM	–	–	–
O=C1N[C@H]2CO[C@@H](CO)C[C@H]2N1c1nc2c3c(ccc2s1)OCCO3 [Example 146, (3aR,6R, 7aR)-1-(7,8-dihydro[1,4]dioxino[2,3-e][1,3]benzothiazol-2-yl)-6-(hydroxymethyl)hexahydropyrano[3,4-d]imidazol-2(3H)-one]	< 10 nM	100 to 1000 nM	≥ 1000 nM	–	–	–
O=C1N[C@H]2CCN(CC(F)(F)F)C[C@H]2N1c1nc2c3c(ccc2s1)OCC3 (racemic) [Example 107, rac-(3aR,7aS)-3-(7,8-dihydrofuro[3,2-e][1,3]benzothiazol-2-yl)-5-(2,2,2-trifluoroethyl)octahydro-2H-imidazo[4,5-c]pyridin-2-one]	–	–	–	10 to 100 nM	≥ 1000 nM	≥ 1000 nM
CO[C@H]1C[C@H]2NC(=O)N(c3nc4c5c(ccc4s3)OCC5)[C@H]2CO1 [Example 130]	–	–	–	100 to 1000 nM	≥ 1000 nM	≥ 1000 nM
N#C[C@H]1C[C@@H]2[C@H](CO1)NC(=O)N2c1nc2c3c(ccc2s1)OCO3 [Example 131, (3aR,6R,7aR)-1-(2H-[1,3]dioxolo[4,5-e][1,3]benzothiazol-7-yl)-2-oxooctahydropyrano[3,4-d]imidazole-6-carbonitrile]	–	–	–	< 10 nM	100 to 1000 nM	100 to 1000 nM
O=C1N[C@@H]2CCN(C3CC3)C[C@@H]2N1c1nc2c3c(ccc2s1)OCCO3 (single isomer, unassigned) [Example 33]	100 to 1000 nM	≥ 1000 nM	≥ 1000 nM	–	–	–
O=C1N[C@H]2CNCCC[C@H]2N1c1nc2c3c(ccc2s1)OCO3 [Example 54]	10 to 100 nM	100 to 1000 nM	100 to 1000 nM	–	–	–
C[C@H]1C[C@H]2NC(=O)N(c3nc4c5c(ccc4s3)OCC5)C2CN1C (stereo partly drawn) [Example 92]	–	–	–	100 to 1000 nM	≥ 1000 nM	≥ 1000 nM
O=C1N[C@H]2CN(C3CC3)CC[C@H]2N1c1nc2c3c(ccc2s1)OCO3 [Example 87]	100 to 1000 nM	≥ 1000 nM	100 to 1000 nM	–	–	–
O=C1NC2CCN(C3CC3)CC2N1c1nc2c3c(ccc2s1)OCO3 (stereo not drawn) [Example 32]	< 10 nM	≥ 1000 nM	≥ 1000 nM	–	–	–
O=C1N[C@H]2CNCCC[C@H]2N1c1nc2c3c(ccc2s1)OCC3 [Example 5]	10 to 100 nM	100 to 1000 nM	100 to 1000 nM	–	–	–
C[C@H]1C[C@@H]2[C@H](CN1C)NC(=O)N2c1nc2c3c(ccc2s1)OCC3 [Example 93, (3aS,6S,7aR)-1-(7,8-dihydrofuro[3,2-e][1,3]benzothiazol-2-yl)-5,6-dimethyloctahydro-2H-imidazo[4,5-c]pyridin-2-one]	–	–	–	10 to 100 nM	100 to 1000 nM	≥ 1000 nM
N#CCN1CC[C@@H]2NC(=O)N(c3nc4c5c(ccc4s3)OCC5)[C@@H]2C1 (single isomer, unassigned) [Example 112]	–	–	–	< 10 nM	100 to 1000 nM	≥ 1000 nM
N#C[C@H]1C[C@H]2NC(=O)N(c3nc4c5c(ccc4s3)OCC5)[C@H]2CO1 [Example 128]	–	–	–	≥ 1000 nM	≥ 1000 nM	≥ 1000 nM
C[C@@H]1C[C@@H]2NC(=O)N(c3nc4c5c(ccc4s3)OCC5)[C@@H]2CN1C [Example 96]	–	–	–	100 to 1000 nM	≥ 1000 nM	≥ 1000 nM
CC1(C)C[C@@H]2[C@H](CO1)NC(=O)N2c1nc2c3c(ccc2s1)OCC3 [Example 124, (3aR,7aR)-1-(7,8-dihydrofuro[3,2-e][1,3]benzothiazol-2-yl)-6,6-dimethylhexahydropyrano[3,4-d]imidazol-2(3H)-one]	–	–	–	< 10 nM	100 to 1000 nM	100 to 1000 nM
O=C1N[C@H]2CCN(C3CCC3)C[C@H]2N1c1nc2c3c(ccc2s1)OCC3 (racemic) [Example 72, rac-(3aR,7aS)-5-cyclobutyl-3-(7,8-dihydrofuro[3,2-e][1,3]benzothiazol-2-yl)octahydro-2H-imidazo[4,5-c]pyridin-2-one]	10 to 100 nM	≥ 1000 nM	≥ 1000 nM	–	–	–
CC(C)(C)OC(=O)N1CC(N2CC[C@@H]3NC(=O)N(c4nc5c6c(ccc5s4)OCC6)[C@@H]3C2)C1 [Example 82]	10 to 100 nM	≥ 1000 nM	≥ 1000 nM	–	–	–
N#CCN1CC[C@H]2NC(=O)N(c3nc4c5c(ccc4s3)OCC5)[C@H]2C1 (single isomer, unassigned) [Example 111]	–	–	–	100 to 1000 nM	≥ 1000 nM	≥ 1000 nM
CC(=O)N1CC[C@@H]2NC(=O)N(c3nc4c5c(ccc4s3)OCC5)[C@@H]2C1 (relative stereo) [Example 20, cis-5-Acetyl-3-(7,8-dihydrofuro[3,2-e][1,3]benzothiazol-2-yl) octahydro-2H-imidazo[4,5-c]pyridin-2-one]	100 to 1000 nM	> 1000 nM	> 1000 nM	–	–	–
O=C1N[C@@H]2COC[C@@H]2N1c1nc2c3c(ccc2s1)OCC3 [Example 66]	100 to 1000 nM	≥ 1000 nM	≥ 1000 nM	–	–	–
O=C1N[C@H]2CCN(C3COC3)C[C@H]2N1c1nc2c3c(ccc2s1)OCO3 (racemic) [Example 81, rac-(3aR,7aS)-3-(2H-[1,3]dioxolo[4,5-e][1,3]benzothiazol-7-yl)-5-(oxetan-3-yl)octahydro-2H-imidazo[4,5-c]pyridin-2-one]	10 to 100 nM	≥ 1000 nM	≥ 1000 nM	–	–	–
CN1CC[C@@H]2[C@@H](NC(=O)N2c2nc3c4c(ccc3s2)OCC4)C12CC2 [Example 68]	100 to 1000 nM	100 to 1000 nM	≥ 1000 nM	–	–	–

— patent US20230365589A1, “NOVEL AMINE DERIVATIVES” (Sumitomo Pharma Co., Ltd., priority 2020, published 2023)
